Measurements reported in patent US20230248627A1, “COMPOSITION FOR HAIR FOLLICLE MODULATION, METHODS AND USES THEREOF” (priority 2020, published 2023).
Where a name gives a salt, the structure may show the parent alone.

What was measured:
human scalp [1] = assay: Pilot clinical study: hair melanin quantification after topical scalp application; format: in vivo; settings: for visible effect on hair colour: after 5 weeks of treatment; for Effectiveness (% of volunteers) / Hair Melanin change (% of control), max.: 5 weeks, 3 times per week
Protocol: All the results present on the following described examples were performed in a pilot clinical study with intervention of cosmetic products (RNEC number: 92938), not contested by the Portuguese Legal Competent Authorities.
This example discloses the treatment of human scalp with a formulation containing a modulation bioactive agent for lightening the hair.
The modulation bioactive agent used in this example was Rivastigmine hydrogen tartrate as lightening agent in a formulation containing water, a thickener agent with emulsifying properties - Lecigel™, a preservative agent - Euxyl® PE 9010, denaturing alcohol and Transcutol® CG.
The volunteers for the application test of the formulation with the modulation agent Rivastigmine hydrogen tartrate had black to medium brown hair.
Each volunteer received the formulation without the agent Rivastigmine hydrogen tartrate and the formulation with the agent Rivastigmine hydrogen tartrate.
(§1) On each volunteer, the hair was shaved in two different posterior scalp locations, of approximately 1 cm^2 each, and the formulations were applied for 5 weeks, three times a week.
(§2) The formulations with and without Rivastigmine were applied directly on scalp. Ten microliters per 1 cm^2 of the control formulation without Rivastigmine hydrogen tartrate were applied to one of the two shaved scalp areas while ten microliters per 1 cm^2 of the formulation with Rivastigmine hydrogen tartrate were applied to the other shaved scalp area.
After the 15th application of formulations with and without the modulation agent, a final picture was taken, the growth rate of the hairs was measured, and some hairs were plucked for further tests.
The hair melanin quantification process was performed after the clinical cosmetic study conclusion, using hairs collected from the scalp areas treated with and without Rivastigmine hydrogen tartrate in a formulation. The control means the hair collected from the scalp area treated with the formulation without Rivastigmine hydrogen tartrate.
In an embodiment, the method for quantifying melanin in hair was as described by Fernandes B. et al., 2016 [51]. Hair samples were digested in NaOH and the solutions obtained normalized to 1 mg/mL of hair. Complete oxidation of hair lysates was performed with hydrogen peroxide and melanin content in hair samples calculated by fluoresce spectroscopy using a standard curve generated by the fluorescence of oxidized melanin standards. Melanin change in hair treated with a formulation with Rivastigmine was calculated using the following mathematical formula: […]
This example discloses the treatment of human scalp with a formulation containing a modulation bioactive agent for darkening the hair.
In an embodiment, the bioactive agent used in this example was Dipyridamole as darkening agent in a formulation containing water, a thickener agent with emulsifying properties - Lecigel™, a preservative agent - Euxyl® PE 9010, denaturing alcohol and Transcutol® CG.
The volunteers for the application test of the formulation with the modulation bioactive agent Dipyridamole had blond hair of different shades.
Each volunteer received the formulation without the agent Dipyridamole and the formulation with the agent Dipyridamole.
as §2, with “In an embodiment, the” for “The”, “Dipyridamole” for “Rivastigmine”, “Dipyridamole” for “Rivastigmine hydrogen tartrate”
(§3) After the 15th application of formulations with and without the modulation bioactive agent, a final picture was taken, the growth rate of the hairs was measured, and some hairs were plucked for further tests.
The hair melanin quantification process was performed after the clinical cosmetic study conclusion, using hairs collected from the scalp areas treated with and without Dipyridamole in a formulation. […]

[2] = tested on: human melanocytes (SK-MEL-23 cell line); assay: Intracellular melanin quantification in melanocytes treated in vitro; format: cell-based; settings: 10 µM dipyridamole, 1% (v/v) DMSO, 3 days, normalized by protein levels
Protocol: This example discloses an “in vitro” treatment of human melanocytes (SK-MEL-23 cell line) with a solution containing a modulation bioactive agent for darkening the skin.
In an embodiment, the bioactive agent used in this example was Dipyridamole as darkening agent in a solution containing water and DMSO.
Cells were seeded on 24-well plates at density of 9.0x10^4 cells/well and treated next day with 10 µM of dipyridamole and 1% (v/v) DMSO. In the control, cells were seeded on 24-well plates at density of 9.0x10^4 cells/well and treated next day with 1% (v/v) DMSO.
The intracellular melanin quantification was performed after 3 days. The method for quantifying melanin in hair was as described by Fernandes B. et al., 2016 [51]. The melanin contents were normalized by protein levels in each sample (DC Protein assay). Melanin change in cells treated with Dipyridamole was calculated using the following mathematical formula: […]

human scalp [3] = assay: Pilot clinical study: hair curvature index after topical scalp application; format: in vivo; settings: for visible effect on hair shape: after 5 weeks of treatment; for Effectiveness (% of volunteers) / Hair shape change (% of control), max. / Hair shape change (% of control), mean: 5 weeks, 3 times per week; for Hair shape change (% of control), max. / Hair shape change (% of control), mean: curvature index
Text: This example discloses the treatment of human scalp with a formulation containing a modulation bioactive agent for straightening the hair.
The bioactive agent used in this example was Midodrine hydrochloride as straightening agent in a formulation containing water, a thickener agent with emulsifying properties - Lecigel™, a preservative agent – Euxyl® PE 9010, denaturing alcohol and Transcutol® CG.
The volunteers for the application test of the formulation with the modulation bioactive agent Midodrine hydrochloride had curly hair.
Each volunteer received the formulation without the agent Midodrine hydrochloride and the formulation with the agent Midodrine hydrochloride.
as §1
as §2, with “Midodrine” for “Rivastigmine”, “Midodrine hydrochloride” for “Rivastigmine hydrogen tartrate”
After the 15th application of formulations with and without the modulation agent, a final picture was taken showing both sites of application, the growth rate of the hairs was measured, and some hairs were plucked for further tests.
(§4) The curvature index was determined after the clinical cosmetic study conclusion, using hairs collected from the scalp areas treated with and without the modulation bioactive agent in a formulation. The control was the hair collected from scalp area treated with the formulation without the modulation bioactive ingredient.
The effect on curvature index was calculated according to the following formula: […]
Each hair was individually measured over a white paper (hair in a relaxed form) and a force was applied in order to keep the hair straight (under stress) and, in this way, measure the length of hair in stressed form.
This example discloses the treatment of human scalp with a formulation containing a modulation bioactive agent for curling the hair.
The modulation bioactive agent used in this example was Topiramate as curling agent in a formulation containing water, a thickener agent with emulsifying properties - Lecigel™, a preservative agent - Euxyl® PE 9010, denaturing alcohol and Transcutol® CG.
The volunteers for the application test of the formulation with the modulation agent Topiramate had straight hair.
Each volunteer received the formulation without the agent Topiramate and the formulation with the agent Topiramate.
as §2, with “Topiramate” for “Rivastigmine”, “Topiramate” for “Rivastigmine hydrogen tartrate”
as §3
as §4, with “collected from the scalp area” for “collected from scalp area”

[4] = Straightening, 0.25% w/w formulation, curly-haired volunteers
[5] = Curling, 1.75% w/w formulation, straight-haired volunteers

OCCN(CCO)c1nc(N2CCCCC2)c2nc(N(CCO)CCO)nc(N3CCCCC3)c2n1 [Dipyridamole]
visible effect on hair colour (human scalp [1]; 0.01% w/w formulation on scalp): induced a darkening effect
Effectiveness (% of volunteers) (human scalp [1]; Darkening, 0.01% w/w formulation on scalp, blond hair): 67.0 % of volunteers
Hair Melanin change (% of control), max. (human scalp [1]; Darkening, 0.01% w/w formulation, blond hair): +57.9%
increase in melanin production relative to the control experiment [2]: 3.5 fold

CCN(C)C(=O)Oc1cccc([C@H](C)N(C)C)c1 [Rivastigmine, Rivastigmine hydrogen tartrate]
visible effect on hair colour (human scalp [1]; 0.2% w/w formulation on scalp): induced a lightening effect
Effectiveness (% of volunteers) (human scalp [1]; Lightening, 0.2% w/w formulation on scalp, black to medium brown hair): 50.0 % of volunteers
Hair Melanin change (% of control), max. (human scalp [1]; Lightening, 0.2% w/w formulation, black to medium brown hair): -26.3%

COc1ccc(OC)c(C(O)CNC(=O)CN)c1 (stereo not drawn) [Midodrine HCl, Midodrine hydrochloride]
visible effect on hair shape (human scalp [3]; 0.25% w/w formulation on scalp, very curly hair): induced a straightening effect
Effectiveness (% of volunteers) (human scalp [3]; Straightening, 0.25% w/w formulation on scalp, curly-haired volunteers): 75.0%
Hair shape change (% of control), max. (human scalp [3]; [4]): +120.0%
Hair shape change (% of control), mean (human scalp [3]; [4]): +76.0%

CC1(C)O[C@@H]2[C@@H](CO[C@@]3(COS(N)(=O)=O)OC(C)(C)O[C@@H]23)O1 [Topiramate]
visible effect on hair shape (human scalp [3]; 1.75% w/w formulation on scalp, straight hair): induced a curling effect
Effectiveness (% of volunteers) (human scalp [3]; Curling, 1.75% w/w formulation on scalp, straight-haired volunteers): 83.3%
Hair shape change (% of control), max. (human scalp [3]; [5]): -11.0%
Hair shape change (% of control), mean (human scalp [3]; [5]): -10.0%
